Key:
hPTP1B1–285 = target: T1, hPTP1B1–285 (Homo sapiens, UniProt P18031); assay: PTP1B activity assay, short form hPTP1B1–285 (p‐NPP); format: biochemical; conditions: ± S.D; p‐NPP substrate, 15 min at 37 °C
T1 construct: hPTP1B1–285 (the short form with an N‐terminal catalytic domain)
T1 sequence (P18031 1-285): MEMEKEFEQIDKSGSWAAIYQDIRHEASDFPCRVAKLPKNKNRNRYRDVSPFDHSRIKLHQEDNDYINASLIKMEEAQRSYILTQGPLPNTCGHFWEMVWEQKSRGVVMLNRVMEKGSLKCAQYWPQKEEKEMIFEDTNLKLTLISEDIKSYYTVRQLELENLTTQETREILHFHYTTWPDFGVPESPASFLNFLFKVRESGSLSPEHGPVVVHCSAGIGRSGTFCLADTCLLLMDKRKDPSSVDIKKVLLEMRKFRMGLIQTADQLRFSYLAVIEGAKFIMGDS
Method: (§1) The inhibitory activity of PTP1B was assessed using two enzyme variants: hPTP1B1–285 (the short form with an N‐terminal catalytic domain) and hPTP1B1–400 (the long form with an intrinsically disordered C‐terminal regulatory domain). […] According to Coronel‐Tovar et al., the disordered region of the C‐terminal domain plays a crucial role in modulating PTP1B enzymatic activity.^[ [30] ^] […] Different concentrations of the compounds were evaluated to determine their IC50 values (Table 1 ).
To do so, these terpenoids were tested against hPTP1B1–285.
(§2) Recombinant human protein tyrosine phosphatase 1B, consisting of 400 and 285 amino acid residues, was used.^[ [35] ^] […] Aliquots of 0–10 µL of the test compounds (triplicate) were taken and incubated for 15 min at 37 °C with 85 µL of Tris buffer solution (50 mM, pH 6.8) containing PTP1B enzyme and 5 µL of p‐nitrophenyl phosphate substrate (p‐NPP, 10 mM). Absorbance was then measured at a wavelength of 405 nm. The inhibitory activity was determined according to Equation (1). (1) % PTP1B=(A405b/A405c)×100 where % PTP1B: Is the percentage of inhibition. A 405c: Is the corrected absorbance of the blank (A 405initial–A 405final). A 405b: Is the corrected absorbance of the compounds (A 405control–A 405compound).

hPTP1B1–400 = target: T2, hPTP1B1–400 (Homo sapiens, UniProt P18031); assay: PTP1B activity assay, long form hPTP1B1–400 (p‐NPP); format: biochemical; design: hPTP1B1–400 (the long form with an intrinsically disordered C‐terminal regulatory domain); conditions: ± S.D; p‐NPP substrate, 15 min at 37 °C, triplicate
T2 sequence (P18031 1-400): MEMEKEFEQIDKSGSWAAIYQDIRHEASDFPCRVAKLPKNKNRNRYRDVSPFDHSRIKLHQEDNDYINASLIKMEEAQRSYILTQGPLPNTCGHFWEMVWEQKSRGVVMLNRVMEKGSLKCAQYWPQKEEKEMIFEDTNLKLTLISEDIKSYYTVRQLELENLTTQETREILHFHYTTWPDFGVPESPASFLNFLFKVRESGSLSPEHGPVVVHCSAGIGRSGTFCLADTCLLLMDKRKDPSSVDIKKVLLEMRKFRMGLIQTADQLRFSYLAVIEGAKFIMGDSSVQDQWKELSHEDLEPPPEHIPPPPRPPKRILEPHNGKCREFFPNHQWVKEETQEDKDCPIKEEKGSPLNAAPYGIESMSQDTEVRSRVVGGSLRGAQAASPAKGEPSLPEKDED
Method: as §1, §2

IC50 (hPTP1B1–285): 14.9 ± 0.95 µM
IC50 (hPTP1B1–400): 2.06 ± 0.08 µM
Compound: CC1(C(=O)O)CCC2(C)CCC3(C)C(=CC(=O)C4C5(C)Cc6c([nH]c7ccc(C(F)(F)F)cc67)C(C)(C)C5CCC43C)C2C1 (centres unmarked) [Compound 3c]
